Data from PubChem BioAssay AID248 (DTP/NCI, 2004).
Several values for one entry are separate records, joined by “and”; a condition that tells them apart may be missing. Equal values may be shown once. Toxic doses and inconclusive results are not listed. Rule as the data show it: active = T/C of 150% or more; inactive = T/C below 125%.

System: L1210 leukemia ip in BDF1 mice, survival T/C
Assay: NCI In Vivo Anticancer Drug Screen. Data for tumor model L1210 Leukemia (intraperitoneal) in B6D2F1 (BDF1) mice
Conditions: endpoint: mean survival time, higher = longer survival
In short: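 Tumor was transplanted into mice, which were then dosed with test compound or vehicle alone. Survival was recorded for each group, and the treated figure was expressed relative to the control figure.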

[1] = dose: 100.0 mg/kg/injection, schedule: Q01DX001 (ip), vehicle: Klucel (hydroxypropylcellulose) (HPC)
[2] = dose: 100.0 mg/kg/injection, schedule: Q04DX003 (ip), vehicle: Klucel (hydroxypropylcellulose) (HPC)
[3] = dose: 200.0 mg/kg/injection, schedule: Q01DX001 (ip), vehicle: Klucel (hydroxypropylcellulose) (HPC)
[4] = dose: 200.0 mg/kg/injection, schedule: Q04DX003 (ip), vehicle: Klucel (hydroxypropylcellulose) (HPC)
[5] = dose: 400.0 mg/kg/injection, schedule: Q01DX001 (ip), vehicle: Klucel (hydroxypropylcellulose) (HPC)
[6] = dose: 400.0 mg/kg/injection, schedule: Q04DX003 (ip), vehicle: Klucel (hydroxypropylcellulose) (HPC)
[7] = dose: 100.0 mg/kg/injection, schedule: Q01DX009 (ip), vehicle: saline with Tween-80
[8] = dose: 100.0 mg/kg/injection, schedule: Q01DX009 (ip), vehicle: saline
[9] = dose: 200.0 mg/kg/injection, schedule: Q01DX009 (ip), vehicle: saline
[10] = dose: 400.0 mg/kg/injection, schedule: Q01DX009 (ip), vehicle: saline
[11] = dose: 100.0 mg/kg/injection, schedule: Q04DX003 (ip), vehicle: saline with Tween-80
[12] = dose: 200.0 mg/kg/injection, schedule: Q04DX003 (ip), vehicle: saline with Tween-80
[13] = dose: 100.0 mg/kg/injection, schedule: Q01DX001 (ip), vehicle: carboxymethylcellulose (CMC)
[14] = dose: 200.0 mg/kg/injection, schedule: Q01DX001 (ip), vehicle: carboxymethylcellulose (CMC)
[15] = dose: 400.0 mg/kg/injection, schedule: Q01DX001 (ip), vehicle: carboxymethylcellulose (CMC)
[16] = dose: 100.0 mg/kg/injection, schedule: Q01DX009 (ip), vehicle: Klucel (hydroxypropylcellulose) (HPC)
[17] = dose: 200.0 mg/kg/injection, schedule: Q01DX009 (ip), vehicle: Klucel (hydroxypropylcellulose) (HPC)
[18] = dose: 100.0 mg/kg/injection, schedule: Q04DX002 (ip), vehicle: saline with Tween-80
[19] = dose: 200.0 mg/kg/injection, schedule: Q04DX002 (ip), vehicle: saline with Tween-80
[20] = dose: 400.0 mg/kg/injection, schedule: Q04DX002 (ip), vehicle: saline with Tween-80
[21] = dose: 400.0 mg/kg/injection, schedule: Q01DX009 (ip), vehicle: Klucel (hydroxypropylcellulose) (HPC)
[22] = dose: 50.0 mg/kg/injection, schedule: Q01DX009 (ip), vehicle: saline with Tween-80
[23] = dose: 100.0 mg/kg/injection, schedule: Q01DX001 (ip), vehicle: saline
[24] = dose: 100.0 mg/kg/injection, schedule: Q04DX002 (ip), vehicle: Klucel (hydroxypropylcellulose) (HPC)
[25] = dose: 200.0 mg/kg/injection, schedule: Q04DX002 (ip), vehicle: Klucel (hydroxypropylcellulose) (HPC)
[26] = dose: 400.0 mg/kg/injection, schedule: Q04DX002 (ip), vehicle: Klucel (hydroxypropylcellulose) (HPC)

Measured: T/C

CCCCCCCCCCCCCCCCN(C(=S)NC(=O)c1ccccc1)c1ccccc1
inactive: [1] 96 % of control | [2] 97 % of control | [3] 86 % of control | [4] 89 % of control | [5] 92 % of control | [6] 95 % of control

CC1(C)OC(=O)CC(=O)O1
inactive: [7] 94 % of control | [8] 100 % of control | dose: 100.0 mg/kg/injection, schedule: Q04DX003 (ip), vehicle: saline 91 % of control | dose: 200.0 mg/kg/injection, schedule: Q01DX009 (ip), vehicle: saline with Tween-80 94 % of control | [9] 93 % of control | dose: 200.0 mg/kg/injection, schedule: Q04DX003 (ip), vehicle: saline 91 % of control | [10] 87 % of control | dose: 400.0 mg/kg/injection, schedule: Q04DX003 (ip), vehicle: saline 93 % of control

C=CCN(CC=C)C(=O)C(C)O (centres undefined)
inactive: [11] 103 % of control | [12] 103 % of control | dose: 400.0 mg/kg/injection, schedule: Q04DX003 (ip), vehicle: saline with Tween-80 98 % of control

CCN(C(=S)c1ccccc1)c1ccc(C(=O)OC)cc1
inactive: dose: 75.0 mg/kg/injection, schedule: Q04DX003 (ip), vehicle: saline 100 % of control | [1] 100 % of control | dose: 150.0 mg/kg/injection, schedule: Q04DX003 (ip), vehicle: saline 102 % of control | [3] 104 % of control | dose: 300.0 mg/kg/injection, schedule: Q04DX003 (ip), vehicle: saline 97 % of control | [5] 100 % of control

O=C(CBr)c1ccc(F)cc1
inactive: dose: 2.0 mg/kg/injection, schedule: Q01DX015 (ip), vehicle: carboxymethylcellulose (CMC) 93 % of control | dose: 4.0 mg/kg/injection, schedule: Q01DX015 (ip), vehicle: carboxymethylcellulose (CMC) 105 % of control | dose: 5.0 mg/kg/injection, schedule: Q01DX001 (ip), vehicle: saline 97 % of control | dose: 8.0 mg/kg/injection, schedule: Q01DX015 (ip), vehicle: carboxymethylcellulose (CMC) 88 % of control | dose: 10.0 mg/kg/injection, schedule: Q01DX001 (ip), vehicle: saline 100 % of control | dose: 15.0 mg/kg/injection, schedule: Q01DX015 (ip), vehicle: carboxymethylcellulose (CMC) 97 % of control | dose: 20.0 mg/kg/injection, schedule: Q01DX001 (ip), vehicle: saline 92 % of control | dose: 40.0 mg/kg/injection, schedule: Q01DX001 (ip), vehicle: saline 92 % of control | dose: 80.0 mg/kg/injection, schedule: Q01DX001 (ip), vehicle: saline 97 % of control

CCCCCCOC(=O)c1cccc2c1-c1ccccc1C2=O
inactive: [13] 93 % of control | [14] 93 % of control | [15] 98 % of control

Cn1c(O)c(O)c(=O)n(C)c1=O
inactive: dose: 50.0 mg/kg/injection, schedule: Q01DX009 (ip), vehicle: Klucel (hydroxypropylcellulose) (HPC) 101 % of control | [16] 98 % of control | [17] 88 % of control

NC(=O)Cc1ccccc1N
inactive: [1] 98 % of control | [3] 114 % of control | [5] 98 % of control

CCCCN1CSC(=S)N(CCCC)C1
inactive: [18] 100 % of control | [19] 93 % of control | [20] 105 % of control

Oc1ccc2ccc3[nH]cnc3c2c1
inactive: [16] 101 % of control | [2] 95 % of control | [17] 104 % of control | [4] 95 % of control | [21] 97 % of control | [6] 94 % of control

COc1ccc(C(C)C(C)=O)cc1 (centres undefined)
inactive: [22] 95 % of control

COc1ccccc1NC(=S)N(C)C
inactive: [11] 96 % of control | [12] 93 % of control

C=CCN1C(=O)C(c2ccccc2)C2(CCN(C)CC2)C1=O (centres undefined)
inactive: dose: 25.0 mg/kg/injection, schedule: Q01DX001 (ip), vehicle: Klucel (hydroxypropylcellulose) (HPC) 108 % of control | dose: 50.0 mg/kg/injection, schedule: Q01DX001 (ip), vehicle: Klucel (hydroxypropylcellulose) (HPC) 108 % of control | [1] 98 % of control and 104 % of control

COc1c2c(c(OC(C)=O)c3c1C(=O)c1ccccc1C3=O)CCCC2
inactive: dose: 6.25 mg/kg/injection, schedule: Q01DX001 (ip), vehicle: saline 100 % of control | dose: 12.5 mg/kg/injection, schedule: Q01DX001 (ip), vehicle: saline 96 % of control | dose: 25.0 mg/kg/injection, schedule: Q01DX001 (ip), vehicle: saline 101 % of control | dose: 50.0 mg/kg/injection, schedule: Q01DX001 (ip), vehicle: saline 95 % of control | [23] 93 % of control

CCC1C(=O)OC2OC(c3ccccc3)(c3ccccc3)NC21 (centres undefined)
inactive: [13] 88 % of control | [14] 88 % of control | [15] 90 % of control

CCOC(=O)C(=CNc1cccc(N)n1)C(=O)OCC
inactive: [2] 95 % of control | [4] 97 % of control | [6] 92 % of control

COc1ccc(NC(=O)OCCN(CCOC(=O)Nc2ccc(OC)cc2)Cc2ccccc2)cc1
inactive: [23] 94 % of control | dose: 200.0 mg/kg/injection, schedule: Q01DX001 (ip), vehicle: saline 96 % of control | dose: 400.0 mg/kg/injection, schedule: Q01DX001 (ip), vehicle: saline 100 % of control

CC1(O)CCC2C3CCC4CC(=O)CCC4(C)C3(F)C(O)CC21C (centres undefined)
inactive: [8] 96 % of control | [9] 102 % of control | [10] 96 % of control

NC1CCCCCCCC1
inactive: dose: 75.0 mg/kg/injection, schedule: Q01DX001 (ip), vehicle: acetone 95 % of control | dose: 150.0 mg/kg/injection, schedule: Q01DX001 (ip), vehicle: acetone 98 % of control

O=Cc1cc2ccccc2[nH]1
inactive: [18] 105 % of control | [19] 102 % of control | [20] 102 % of control

CN(C)c1ccc(C=O)c(Oc2ccccc2)c1
inactive: [16] 96 % of control | [2] 97 % of control | [17] 110 % of control | [4] 97 % of control | [21] 106 % of control | [6] 94 % of control

C=CCc1cc(CN2CCOCC2)c(O)c(OC)c1
inactive: [16] 98 % of control | [24] 101 % of control and 108 % of control | [17] 97 % of control | [25] 89 % of control | [21] 103 % of control | [26] 107 % of control

CC(=O)CC(=O)C(F)(F)F.CC(=O)CC(=O)C(F)(F)F.CC(=O)CC(=O)C(F)(F)F.[Ru]
inactive: [13] 96 % of control | [14] 94 % of control | [15] 88 % of control

CSc1ccc(NC(=O)CCl)cc1
inactive: dose: 25.0 mg/kg/injection, schedule: Q01DX009 (ip), vehicle: saline with Tween-80 97 % of control | dose: 25.0 mg/kg/injection, schedule: Q04DX003 (ip), vehicle: saline with Tween-80 97 % of control | [22] 108 % of control | dose: 50.0 mg/kg/injection, schedule: Q04DX003 (ip), vehicle: saline with Tween-80 95 % of control | [7] 100 % of control | [11] 101 % of control

BrCC(CCCc1ccccc1)CCc1ccccc1 (centres undefined)
inactive: [18] 93 % of control | [19] 90 % of control | [20] 101 % of control

COc1ccc(-n2c(=O)c(N=Nc3ccccc3)c(O)n(-c3ccccc3OC)c2=S)cc1
inactive: dose: 12.5 mg/kg/injection, schedule: Q01DX001 (ip), vehicle: saline with Tween-80 101 % of control | dose: 25.0 mg/kg/injection, schedule: Q01DX001 (ip), vehicle: saline with Tween-80 90 % of control | dose: 50.0 mg/kg/injection, schedule: Q01DX001 (ip), vehicle: saline with Tween-80 94 % of control

CC(=O)OC(C1SCCCS1)C1CC2C=CC1C2 (centres undefined)
inactive: [24] 115 % of control | [25] 91 % of control | [26] 105 % of control

COc1ccc(C(C)=O)cc1N
inactive: [16] 98 % of control | [2] 94 % of control | [17] 104 % of control | [4] 93 % of control | [21] 116 % of control | [6] 94 % of control
